TGI data for 14 compounds are collected here from PubChem BioAssay (NCI).

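Interpolation was linear, between the two tested concentrations surrounding the appropriate level; five concentrations were tested over 48 hours in 96-well plates. TGI: total growth inhibition.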

Among the test systems are LOX IMVI melanoma; A549 NSCLC; IGROV1 ovarian; RXF 393 renal; HCT-15 colon; EKVX NSCLC; RPMI-8226 leukemia; OVCAR-4 ovarian; ACHN renal; SK-MEL-5 melanoma; DU-145 prostate.
Holding throughout (experiment): growth of human tumour cells (NCI), 48 h

`Cc1ccc(Sc2ccccc2[N+](=O)[O-])cc1`: the TGI with LOX IMVI melanoma is over 100 µM; in the assay on A549 NSCLC it was over 100 µM; with IGROV1 ovarian, over 100 µM; in the assay with RXF 393 renal, 59.8 µM; in the assay with HCT-15 colon, 62.2 µM; with EKVX NSCLC, over 100 µM. Besides, the TGI was over 100 µM with RPMI-8226 leukemia, over 100 µM in the assay with OVCAR-4 ovarian, over 100 µM in the assay with ACHN renal and 30.8 µM with SK-MEL-5 melanoma.

Take `CC1(C)C(CCO)CC1n1ccc(=O)[nH]c1=O` (centres undefined): the TGI in the assay with LOX IMVI melanoma, in the assay on DU-145 prostate, in the assay on A549 NSCLC, in the assay with RXF 393 renal, with HCT-15 colon and with EKVX NSCLC was over 100 µM each time. For the same compound, the TGI with OVCAR-4 ovarian, with ACHN renal and in the assay with SK-MEL-5 melanoma was over 100 µM each time.

For `Cc1cccc2c1c1ccc3c(c1n2C)C(=O)C=CC3=O`, the TGI is 6.58 µM in the assay with LOX IMVI melanoma; 37.7 µM with A549 NSCLC; 32.5 µM in the assay on IGROV1 ovarian; 7.86 µM with RXF 393 renal; 10.5 µM with HCT-15 colon; 38.2 µM in the assay with EKVX NSCLC. Moreover, the TGI with RPMI-8226 leukemia stood at 13.2 µM; with OVCAR-4 ovarian, 24.3 µM; in the assay with ACHN renal, 18 µM; in the assay with SK-MEL-5 melanoma it was 29.6 µM.

Turning to `COC(=O)C(=O)C(C(=O)C(=O)Nc1cccc([N+](=O)[O-])c1)c1nc2ccc(Cl)cc2[nH]c1=O` (centres undefined), the TGI with LOX IMVI melanoma, in the assay on DU-145 prostate, with A549 NSCLC, in the assay on IGROV1 ovarian, in the assay on RXF 393 renal and in the assay on HCT-15 colon was over 100 µM throughout. Also, the TGI with EKVX NSCLC, in the assay on OVCAR-4 ovarian, with ACHN renal and in the assay with SK-MEL-5 melanoma was over 100 µM each time.

Consider `O=C1Nc2cc([N+](=O)[O-])c(Br)cc2C1=O`, for which the TGI is 35.2 µM with LOX IMVI melanoma; over 100 µM in the assay with A549 NSCLC; 32.7 µM with IGROV1 ovarian; 39.4 µM in the assay with RXF 393 renal; 37.1 µM in the assay with HCT-15 colon; 47.4 µM with EKVX NSCLC. Moreover, the TGI in the assay on RPMI-8226 leukemia is 43.3 µM; in the assay with OVCAR-4 ovarian it was 30.5 µM; in the assay with ACHN renal it was 35.3 µM; in the assay on SK-MEL-5 melanoma it was 60.7 µM.

On to `COc1cc(C2C(Cl)C(=O)N2NC(=O)c2ccc(NC(C)=O)cc2)ccc1O` (centres undefined), for which the TGI in the assay with LOX IMVI melanoma, with A549 NSCLC, with IGROV1 ovarian, with RXF 393 renal, with HCT-15 colon and in the assay on EKVX NSCLC was over 100 µM throughout. Besides, the TGI with RPMI-8226 leukemia, with OVCAR-4 ovarian, in the assay with ACHN renal and with SK-MEL-5 melanoma was over 100 µM throughout.

Regarding `CN(C(=O)c1ccc2c(c1)sc1c(=O)n(C)c3ccccc3c12)c1ccccc1`, the TGI in the assay on LOX IMVI melanoma, with DU-145 prostate, in the assay with A549 NSCLC, in the assay with IGROV1 ovarian, in the assay on RXF 393 renal and in the assay on HCT-15 colon was over 100 µM in each case. Also, the TGI with EKVX NSCLC, in the assay with OVCAR-4 ovarian, in the assay with ACHN renal and in the assay on SK-MEL-5 melanoma was over 100 µM each time.

With `CC(C)OP(=O)(OC(C)C)C1=NN(c2ccc([N+](=O)[O-])cc2)C(P(=O)(OC(C)C)OC(C)C)=NN1c1ccc([N+](=O)[O-])cc1`, the TGI in the assay on LOX IMVI melanoma, in the assay with A549 NSCLC, in the assay with IGROV1 ovarian, in the assay on RXF 393 renal, with HCT-15 colon and with EKVX NSCLC was over 100 µM throughout. Besides, the TGI in the assay with RPMI-8226 leukemia, in the assay with OVCAR-4 ovarian, in the assay on ACHN renal and in the assay with SK-MEL-5 melanoma was over 100 µM throughout.

With `CCOC(=O)c1cc2c(OCc3ccccc3)c(OC)cc3c2c(n1)N(c1ccc(OC)cc1)C(C)C3` (centres undefined), the TGI with LOX IMVI melanoma, in the assay with A549 NSCLC, in the assay on IGROV1 ovarian, with RXF 393 renal, in the assay on HCT-15 colon and in the assay on EKVX NSCLC was over 50 µM in each case. The TGI in the assay on RPMI-8226 leukemia, in the assay with OVCAR-4 ovarian, in the assay with ACHN renal and with SK-MEL-5 melanoma was over 50 µM each time.

Consider `Cc1cc(NC(=O)C2C3C=CC(O3)C2C(=O)O)no1` (centres undefined), for which the TGI in the assay with LOX IMVI melanoma was 29.8 µM; with A549 NSCLC it was over 100 µM; with IGROV1 ovarian it was over 100 µM; in the assay with RXF 393 renal, 31 µM; with HCT-15 colon, 37.4 µM; with EKVX NSCLC, over 100 µM. The TGI with RPMI-8226 leukemia is 37.4 µM; in the assay with OVCAR-4 ovarian it was over 100 µM; in the assay on ACHN renal, over 100 µM; in the assay on SK-MEL-5 melanoma, over 100 µM.

In the case of `CC(=O)NC(CCCCN)C(=O)NCc1ccccc1` (centres undefined), the TGI with LOX IMVI melanoma, with A549 NSCLC, in the assay on IGROV1 ovarian, in the assay with RXF 393 renal, in the assay with HCT-15 colon and with EKVX NSCLC was over 100 µM throughout. Further, the TGI in the assay with RPMI-8226 leukemia, in the assay with OVCAR-4 ovarian, in the assay with ACHN renal and with SK-MEL-5 melanoma was over 100 µM each time.

As for `CCOC(=O)C(C)Sc1nnc(COc2ccccc2OC)n1-c1ccccc1` (centres undefined), the TGI in the assay on LOX IMVI melanoma was 34.4 µM; in the assay on A549 NSCLC, over 100 µM; in the assay with IGROV1 ovarian, over 100 µM; with RXF 393 renal it was over 100 µM; with HCT-15 colon, 30.6 µM; with EKVX NSCLC, over 100 µM. Moreover, the TGI is 59.9 µM in the assay on RPMI-8226 leukemia, over 100 µM in the assay on OVCAR-4 ovarian, over 100 µM in the assay with ACHN renal and over 100 µM with SK-MEL-5 melanoma.

Take `Cc1cn(C2CC(CCCO)C(CO)O2)c(=O)[nH]c1=O` (centres undefined): the TGI in the assay on LOX IMVI melanoma, in the assay with A549 NSCLC, in the assay with IGROV1 ovarian, in the assay on RXF 393 renal, with HCT-15 colon and in the assay on EKVX NSCLC was over 100 µM throughout. Besides, the TGI with RPMI-8226 leukemia, in the assay with OVCAR-4 ovarian, in the assay on ACHN renal and with SK-MEL-5 melanoma was over 100 µM throughout.

Take `CCOC(=O)CCC1(C(=O)OCC)CCCC1=O` (centres undefined): the TGI in the assay with LOX IMVI melanoma, with A549 NSCLC, in the assay on IGROV1 ovarian, with RXF 393 renal, in the assay on HCT-15 colon and in the assay with EKVX NSCLC was over 100 µM throughout. The TGI is 77.4 µM in the assay with RPMI-8226 leukemia, over 100 µM in the assay with OVCAR-4 ovarian, over 100 µM with ACHN renal and over 100 µM with SK-MEL-5 melanoma.
